In ChEMBL document CHEMBL5465560, “Selectivity Literature for EUbOPEN Chemogenomic Library” (2024):

Assays:
[1] = target: T1, Serine/threonine-protein kinase TNNI3K (Homo sapiens) (UniProt Q59H18); assay: Selectivity interaction (KinomeScan (DiscoverX)) EUB0001049a TNNI3K; conditions: at 1 µM
T1 sequence (whole entry): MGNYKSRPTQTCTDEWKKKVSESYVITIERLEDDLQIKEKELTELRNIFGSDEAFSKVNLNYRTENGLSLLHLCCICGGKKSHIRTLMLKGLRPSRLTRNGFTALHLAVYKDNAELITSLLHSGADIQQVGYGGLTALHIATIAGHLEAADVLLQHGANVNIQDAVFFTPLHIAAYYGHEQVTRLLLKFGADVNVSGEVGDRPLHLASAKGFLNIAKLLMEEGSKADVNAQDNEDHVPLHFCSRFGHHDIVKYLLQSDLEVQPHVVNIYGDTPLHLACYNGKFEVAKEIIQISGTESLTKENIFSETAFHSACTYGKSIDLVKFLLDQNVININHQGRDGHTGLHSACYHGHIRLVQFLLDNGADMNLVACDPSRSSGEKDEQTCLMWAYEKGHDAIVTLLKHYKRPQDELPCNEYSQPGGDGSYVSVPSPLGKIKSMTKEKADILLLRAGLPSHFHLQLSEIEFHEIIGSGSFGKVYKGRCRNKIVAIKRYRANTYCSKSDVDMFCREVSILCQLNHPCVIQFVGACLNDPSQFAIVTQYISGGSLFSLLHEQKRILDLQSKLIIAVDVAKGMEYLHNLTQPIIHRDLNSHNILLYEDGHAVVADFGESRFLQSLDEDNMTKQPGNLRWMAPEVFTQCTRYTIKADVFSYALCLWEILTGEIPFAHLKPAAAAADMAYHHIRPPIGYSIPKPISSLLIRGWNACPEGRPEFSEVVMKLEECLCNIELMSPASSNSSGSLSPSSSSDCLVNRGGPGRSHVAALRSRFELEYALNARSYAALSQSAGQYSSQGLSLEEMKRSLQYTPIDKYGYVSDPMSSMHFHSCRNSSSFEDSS

[2] = target: T2, Mitogen-activated protein kinase kinase kinase 15 (Homo sapiens) (UniProt Q6ZN16); assay: Selectivity interaction (KinomeScan (DiscoverX)) EUB0000666a MAP3K15; conditions: at 10 µM
T2 sequence (whole entry): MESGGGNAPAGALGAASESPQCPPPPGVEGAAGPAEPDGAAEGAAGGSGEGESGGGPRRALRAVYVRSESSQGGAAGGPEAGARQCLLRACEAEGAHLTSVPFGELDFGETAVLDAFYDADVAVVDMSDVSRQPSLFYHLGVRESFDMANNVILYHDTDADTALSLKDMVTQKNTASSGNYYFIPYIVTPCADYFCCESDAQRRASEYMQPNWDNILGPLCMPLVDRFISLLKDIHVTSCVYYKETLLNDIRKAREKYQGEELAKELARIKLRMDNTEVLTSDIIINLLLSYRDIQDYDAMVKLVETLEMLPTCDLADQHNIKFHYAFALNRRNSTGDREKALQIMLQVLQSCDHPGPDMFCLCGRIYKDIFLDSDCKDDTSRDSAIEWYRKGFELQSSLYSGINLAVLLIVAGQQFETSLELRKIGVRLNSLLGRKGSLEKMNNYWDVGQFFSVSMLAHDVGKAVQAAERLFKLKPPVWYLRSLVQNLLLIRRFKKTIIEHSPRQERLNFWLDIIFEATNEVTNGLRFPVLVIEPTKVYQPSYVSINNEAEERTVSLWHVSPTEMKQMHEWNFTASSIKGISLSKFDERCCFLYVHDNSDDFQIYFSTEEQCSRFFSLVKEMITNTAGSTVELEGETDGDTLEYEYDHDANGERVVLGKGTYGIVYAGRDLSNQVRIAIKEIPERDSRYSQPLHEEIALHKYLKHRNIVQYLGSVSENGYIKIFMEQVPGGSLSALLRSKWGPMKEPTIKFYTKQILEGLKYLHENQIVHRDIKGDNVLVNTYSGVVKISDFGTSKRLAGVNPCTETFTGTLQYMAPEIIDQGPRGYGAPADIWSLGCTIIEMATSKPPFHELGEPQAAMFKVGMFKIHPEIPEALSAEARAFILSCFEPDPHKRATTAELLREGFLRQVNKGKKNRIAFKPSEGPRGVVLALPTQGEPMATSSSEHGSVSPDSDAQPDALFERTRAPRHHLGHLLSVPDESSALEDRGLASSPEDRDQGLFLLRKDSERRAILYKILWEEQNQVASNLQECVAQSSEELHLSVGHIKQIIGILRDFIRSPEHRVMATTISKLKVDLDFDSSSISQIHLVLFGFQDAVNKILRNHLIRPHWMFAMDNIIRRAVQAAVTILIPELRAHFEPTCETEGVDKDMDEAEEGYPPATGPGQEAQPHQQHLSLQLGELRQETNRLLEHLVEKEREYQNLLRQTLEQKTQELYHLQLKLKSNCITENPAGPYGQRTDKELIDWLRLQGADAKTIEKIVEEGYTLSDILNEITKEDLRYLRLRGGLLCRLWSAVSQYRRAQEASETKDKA

[3] = target: Tyrosine-protein kinase Srms (Homo sapiens) (UniProt Q9H3Y6); assay: Selectivity interaction (Ambit KINOMEscan and KiNATiv profiling in Jurkat cells) EUB0000090b SRMS; assay type: cell-based; conditions: at 1 µM
Sequence of Tyrosine-protein kinase Srms (Homo sapiens) (Q9H3Y6 whole entry): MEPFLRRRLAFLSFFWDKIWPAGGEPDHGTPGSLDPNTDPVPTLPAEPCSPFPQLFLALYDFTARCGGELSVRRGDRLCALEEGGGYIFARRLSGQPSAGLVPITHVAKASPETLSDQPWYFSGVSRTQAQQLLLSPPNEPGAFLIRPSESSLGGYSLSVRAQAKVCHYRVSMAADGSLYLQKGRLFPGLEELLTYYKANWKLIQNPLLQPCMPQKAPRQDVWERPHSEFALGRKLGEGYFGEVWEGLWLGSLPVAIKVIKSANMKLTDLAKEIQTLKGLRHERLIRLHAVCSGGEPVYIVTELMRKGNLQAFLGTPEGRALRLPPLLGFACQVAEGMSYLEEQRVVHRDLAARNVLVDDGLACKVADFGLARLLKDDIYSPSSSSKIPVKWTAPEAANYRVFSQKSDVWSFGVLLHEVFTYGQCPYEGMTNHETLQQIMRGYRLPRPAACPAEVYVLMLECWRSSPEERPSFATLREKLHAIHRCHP

[4] = target: Death-associated protein kinase 3 (Homo sapiens) (UniProt O43293); assay: Selectivity interaction (KinomeScan (DiscoverX)) EUB0000618a DAPK3; conditions: at 10 µM
Sequence of Death-associated protein kinase 3 (Homo sapiens) (O43293 whole entry, looked up): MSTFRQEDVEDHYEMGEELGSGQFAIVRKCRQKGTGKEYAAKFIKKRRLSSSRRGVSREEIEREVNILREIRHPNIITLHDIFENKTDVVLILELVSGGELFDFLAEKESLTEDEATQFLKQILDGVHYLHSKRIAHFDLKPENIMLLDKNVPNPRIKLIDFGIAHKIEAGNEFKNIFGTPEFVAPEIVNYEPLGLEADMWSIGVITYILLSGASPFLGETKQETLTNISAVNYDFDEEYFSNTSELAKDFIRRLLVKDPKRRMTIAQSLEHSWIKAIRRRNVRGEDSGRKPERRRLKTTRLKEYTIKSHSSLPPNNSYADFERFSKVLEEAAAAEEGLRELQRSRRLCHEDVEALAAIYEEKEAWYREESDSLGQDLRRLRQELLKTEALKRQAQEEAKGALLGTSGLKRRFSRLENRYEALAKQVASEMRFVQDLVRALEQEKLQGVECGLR

[5] = target: Serine/threonine-protein kinase PLK1 (Homo sapiens, UniProt P53350)
Sequence of Serine/threonine-protein kinase PLK1 (P53350 whole entry): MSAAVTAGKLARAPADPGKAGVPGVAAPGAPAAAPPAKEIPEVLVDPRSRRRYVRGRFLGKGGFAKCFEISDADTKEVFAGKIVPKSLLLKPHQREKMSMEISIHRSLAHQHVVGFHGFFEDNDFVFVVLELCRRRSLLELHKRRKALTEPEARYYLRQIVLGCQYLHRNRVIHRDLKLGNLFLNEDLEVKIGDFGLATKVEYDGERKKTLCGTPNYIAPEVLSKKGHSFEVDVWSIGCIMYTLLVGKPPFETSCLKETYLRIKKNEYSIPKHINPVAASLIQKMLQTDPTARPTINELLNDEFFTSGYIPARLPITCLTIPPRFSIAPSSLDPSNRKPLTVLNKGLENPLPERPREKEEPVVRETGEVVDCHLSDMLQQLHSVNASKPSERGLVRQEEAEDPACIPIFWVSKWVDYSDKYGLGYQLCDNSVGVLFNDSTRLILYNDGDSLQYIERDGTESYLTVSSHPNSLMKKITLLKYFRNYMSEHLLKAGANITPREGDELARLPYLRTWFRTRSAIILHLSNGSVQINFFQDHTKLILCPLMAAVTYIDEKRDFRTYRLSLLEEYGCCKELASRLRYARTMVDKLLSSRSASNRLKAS

[6] = target: Leucine-rich repeat serine/threonine-protein kinase 2 (Homo sapiens, UniProt Q5S007); conditions: at 1 µM
Sequence of Leucine-rich repeat serine/threonine-protein kinase 2 (Q5S007 whole entry): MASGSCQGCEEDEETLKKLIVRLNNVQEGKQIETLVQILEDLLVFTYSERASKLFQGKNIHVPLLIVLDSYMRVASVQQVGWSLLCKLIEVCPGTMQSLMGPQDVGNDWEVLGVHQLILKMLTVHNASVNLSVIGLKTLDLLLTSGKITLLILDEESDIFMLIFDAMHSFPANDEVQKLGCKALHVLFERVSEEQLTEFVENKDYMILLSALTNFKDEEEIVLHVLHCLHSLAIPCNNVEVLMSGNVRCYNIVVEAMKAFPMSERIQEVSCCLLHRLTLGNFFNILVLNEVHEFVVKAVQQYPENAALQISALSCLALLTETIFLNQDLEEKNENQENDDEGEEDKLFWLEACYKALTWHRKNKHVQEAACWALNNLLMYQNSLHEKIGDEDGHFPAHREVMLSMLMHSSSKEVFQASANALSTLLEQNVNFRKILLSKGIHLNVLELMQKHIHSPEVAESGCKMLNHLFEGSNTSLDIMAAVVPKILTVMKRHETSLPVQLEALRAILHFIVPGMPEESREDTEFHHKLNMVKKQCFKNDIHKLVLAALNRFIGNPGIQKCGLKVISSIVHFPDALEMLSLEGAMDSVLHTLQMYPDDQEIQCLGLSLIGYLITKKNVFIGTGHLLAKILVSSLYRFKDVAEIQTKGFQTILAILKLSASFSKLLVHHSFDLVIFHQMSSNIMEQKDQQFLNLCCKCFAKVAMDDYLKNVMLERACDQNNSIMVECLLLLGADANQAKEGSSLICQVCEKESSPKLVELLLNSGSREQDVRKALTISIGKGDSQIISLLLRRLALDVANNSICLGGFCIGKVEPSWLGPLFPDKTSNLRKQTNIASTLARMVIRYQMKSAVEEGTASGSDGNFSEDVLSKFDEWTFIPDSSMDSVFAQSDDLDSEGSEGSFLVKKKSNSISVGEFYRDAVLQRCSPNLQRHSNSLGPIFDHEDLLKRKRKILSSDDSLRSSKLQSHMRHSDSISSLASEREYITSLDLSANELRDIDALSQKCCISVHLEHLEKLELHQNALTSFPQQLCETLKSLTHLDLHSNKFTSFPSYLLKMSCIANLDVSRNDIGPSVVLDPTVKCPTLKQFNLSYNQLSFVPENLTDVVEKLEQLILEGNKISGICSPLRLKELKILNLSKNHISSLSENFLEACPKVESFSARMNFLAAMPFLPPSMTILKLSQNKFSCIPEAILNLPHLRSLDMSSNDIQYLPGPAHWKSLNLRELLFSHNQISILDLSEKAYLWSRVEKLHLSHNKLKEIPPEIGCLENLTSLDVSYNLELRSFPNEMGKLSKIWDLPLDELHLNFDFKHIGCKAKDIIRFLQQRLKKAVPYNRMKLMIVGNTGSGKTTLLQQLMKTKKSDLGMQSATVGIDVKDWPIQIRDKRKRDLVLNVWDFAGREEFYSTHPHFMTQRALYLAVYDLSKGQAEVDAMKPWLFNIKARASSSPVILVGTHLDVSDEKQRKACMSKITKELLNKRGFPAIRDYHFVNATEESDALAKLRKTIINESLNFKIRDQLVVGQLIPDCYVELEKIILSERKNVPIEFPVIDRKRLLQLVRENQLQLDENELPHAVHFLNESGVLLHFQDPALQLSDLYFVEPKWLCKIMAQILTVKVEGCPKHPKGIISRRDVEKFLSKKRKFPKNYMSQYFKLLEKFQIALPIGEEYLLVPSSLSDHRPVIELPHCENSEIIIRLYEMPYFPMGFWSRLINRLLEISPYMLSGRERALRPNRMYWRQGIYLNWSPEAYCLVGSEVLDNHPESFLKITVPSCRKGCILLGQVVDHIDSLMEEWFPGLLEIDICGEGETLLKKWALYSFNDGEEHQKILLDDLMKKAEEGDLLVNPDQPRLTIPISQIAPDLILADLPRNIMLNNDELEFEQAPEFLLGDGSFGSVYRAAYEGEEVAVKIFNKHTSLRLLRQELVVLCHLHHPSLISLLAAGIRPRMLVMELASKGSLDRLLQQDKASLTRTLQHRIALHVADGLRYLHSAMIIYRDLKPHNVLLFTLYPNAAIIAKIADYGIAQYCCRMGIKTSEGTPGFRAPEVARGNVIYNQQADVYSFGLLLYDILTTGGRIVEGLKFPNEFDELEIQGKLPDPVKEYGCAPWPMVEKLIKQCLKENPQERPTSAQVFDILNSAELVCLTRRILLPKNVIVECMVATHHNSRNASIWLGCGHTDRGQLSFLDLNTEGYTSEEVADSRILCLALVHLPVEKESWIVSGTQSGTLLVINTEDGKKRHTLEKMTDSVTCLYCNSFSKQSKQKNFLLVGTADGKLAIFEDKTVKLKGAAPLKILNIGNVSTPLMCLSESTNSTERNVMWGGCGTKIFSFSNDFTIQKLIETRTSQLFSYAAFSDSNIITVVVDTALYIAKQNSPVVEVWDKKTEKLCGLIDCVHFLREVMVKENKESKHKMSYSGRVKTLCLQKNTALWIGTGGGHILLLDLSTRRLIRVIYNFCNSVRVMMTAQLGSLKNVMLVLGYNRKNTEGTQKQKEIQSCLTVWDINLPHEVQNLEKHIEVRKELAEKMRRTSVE

[7] = target: Cyclin-dependent kinase 5/CDK5 activator 1 (Homo sapiens) (UniProt Q00535+Q15078); assay: Selectivity interaction (Upstate Kinase Profiler service (Millipore)) EUB0000056c CDK5; assay type: protein-complex assay; conditions: at 1 µM
[8] = target: Ribosomal protein S6 kinase beta-1 (Homo sapiens, UniProt P23443); assay: Selectivity interaction (KinomeScan (DiscoverX)) EUB0000607a RPS6KB1; conditions: at 10 µM
Sequence of Ribosomal protein S6 kinase beta-1 (P23443 whole entry, looked up): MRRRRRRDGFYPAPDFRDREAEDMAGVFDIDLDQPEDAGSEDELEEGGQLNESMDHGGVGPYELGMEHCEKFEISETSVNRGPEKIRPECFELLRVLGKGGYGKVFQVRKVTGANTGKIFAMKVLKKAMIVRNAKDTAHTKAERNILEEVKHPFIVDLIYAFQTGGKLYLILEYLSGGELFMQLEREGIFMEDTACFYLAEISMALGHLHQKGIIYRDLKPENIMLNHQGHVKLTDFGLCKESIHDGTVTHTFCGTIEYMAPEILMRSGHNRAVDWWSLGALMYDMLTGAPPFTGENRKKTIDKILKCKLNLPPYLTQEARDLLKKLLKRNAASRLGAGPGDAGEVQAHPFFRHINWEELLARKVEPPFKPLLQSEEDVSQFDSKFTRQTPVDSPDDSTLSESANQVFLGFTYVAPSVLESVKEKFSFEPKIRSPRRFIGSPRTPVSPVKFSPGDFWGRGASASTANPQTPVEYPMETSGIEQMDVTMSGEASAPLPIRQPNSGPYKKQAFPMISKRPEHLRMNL

With `COc1cc(Nc2nc(C)cc(-c3cnn4nc(OC)ccc34)n2)cc(C(F)(F)F)c1` the % of control [1] was 100%.
Work on `O=C(NOC[C@H](O)CO)c1ccc(F)c(F)c1Nc1ccc(I)cc1F` yielded a % of control [2] of 100%.
`CN(C)C/C=C/C(=O)Nc1ccc(C(=O)N2CCCC(Nc3ncc(Cl)c(-c4c[nH]c5ccccc45)n3)C2)cc1` (stereo not drawn) was tested, and the % of control [3] was 99%.
`O[C@H]1CC[C@H](Nc2ncc3nc(Nc4c(F)cc(F)cc4F)n([C@H]4CCOC4)c3n2)CC1` was tested, and the % of control [4] was 100%.
In the case of `CCc1cccc(CC)c1NC(=O)c1nn(C)c2c1CCc1cnc(Nc3ccc(C(=O)NC4CCN(C)CC4)cc3OC(F)(F)F)nc1-2`, the IC50 [5] is reported as > 10 µM.
For `N#Cc1cccc(-c2c[nH]c3ncnc(N4CCOCC4)c23)c1`, the % of control [6] was 43%.
For `Cc1ccc(-c2ccc3c(ccc4sc5c(c43)NC[C@@H](C)NC5=O)n2)cn1`, the % of inhibition [7] was 62%.
Work on `CNC(=O)Nc1ccc(-c2nc(N3CC4CCC(C3)O4)c3cnn(C4CCC5(CC4)OCCO5)c3n2)cc1` yielded a % of control [8] of 100%.
